The test addresses T1, ERR1 (also known as ERR-α or ERR-1) (Homo sapiens, UniProt P11474).
T1 sequence (P11474 193-421 limits assumed): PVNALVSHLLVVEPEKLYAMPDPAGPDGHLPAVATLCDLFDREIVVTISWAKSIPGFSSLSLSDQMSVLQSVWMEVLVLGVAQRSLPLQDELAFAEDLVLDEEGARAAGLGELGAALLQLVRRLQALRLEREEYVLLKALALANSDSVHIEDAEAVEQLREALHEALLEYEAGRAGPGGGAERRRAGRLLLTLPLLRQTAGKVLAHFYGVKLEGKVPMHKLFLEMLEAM
Nature of the test: TR-FRET assay (disruption of co-activator peptide binding to ERR1 LBD). Format: biochemical. As to conditions: 6 nM 6His-ERR1LBD, 6 nM GST-SRC-2 peptide; average of 3 independent experiments. In a few lines:
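Homogeneous TR-FRET measuring displacement of GST-hSRC2 co-activator peptide (6 nM) from His-tagged ERR1 LBD (6 nM), detected with α-GST Eu cryptate (30 nM) and α-His-XL665 (7.5 nM). Buffer 25 mM Tris pH 8, 2.5 mM Hepes, 20 mM KCl, 1 mM DTT, 0.05 mg/mL delipidated BSA; equilibration 4-18 h at 25° C. Hyperbolic dose-response fit, mean of 3 experiments.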
What is called EC50 is the midpoint of the concentration-response curve. Lower therefore signals greater potency. Take `CS(=O)(=O)NN1C(=O)S/C(=C\c2ccc3c(cnn3Cc3ccc(C(F)(F)F)cc3C(F)(F)F)c2)C1=O` [Compound 360, N-[(5Z)-5-({1-[2,4-Bis(trifluoromethyl)benzyl]-1H-indazol-5-yl}methylidene)-2,4-dioxo-1,3-thiazolidin-3-yl]methanesulfonamide]: a half-maximal response (EC50) required 26 nM.

As to `O=C1S/C(=C\c2ccc3c(cnn3Cc3ccc(Cl)cc3C(F)(F)F)c2)C(=O)N1[C@@H]1CCOC1` [Compound 125, (5Z)-5-({1-[4-Chloro-2-(trifluoromethyl)benzyl]-1H-indazol-5-yl}methylidene)-3-[(3R)-tetrahydrofuran-3-yl]-1,3-thiazolidine-2,4-dione], the midpoint of the response, the EC50, lay at 47 nM.

`O=C1S/C(=C\c2ccc3c(cnn3Cc3ccc(Cl)cc3C(F)(F)F)c2)C(=O)N1[C@@H]1CN2CCC1CC2` [Compound 132, (5Z)-3-[(3S)-1-Azabicyclo[2.2.2]oct-3-yl]-5-({1-[4-chloro-2-(trifluoromethyl)benzyl]-1H-indazol-5-yl}methylidene)-1,3-thiazolidine-2,4-dione]: the midpoint of the response, the EC50, lay at 18 nM. This EC50 lies about 2.6-fold lower than the previous one.

Regarding `O=C1S/C(=C\c2ccc3c(cnn3Cc3ccc(Cl)cc3C(F)(F)F)c2)C(=O)N1C1(C(=O)O)CCC1` [Compound 235, 1-[(5Z)-5-({1-[4-Chloro-2-(trifluoromethyl)benzyl]-1H-indazol-5-yl}methylidene)-2,4-dioxo-1,3-thiazolidin-3-yl]cyclobutanecarboxylic acid], the EC50 came out at 45 nM.

Consider `CN(CCN1C(=O)S/C(=C\c2ccc3c(cnn3Cc3ccc(Cl)cc3C(F)(F)F)c2)C1=O)C(=O)C(F)(F)F` [Compound 394, N-{2-[(5Z)-5-({1-[4-Chloro-2-(trifluoromethyl)benzyl]-1H-indazol-5-yl}methylidene)-2,4-dioxo-1,3-thiazolidin-3-yl]ethyl}-2,2,2-trifluoro-N-methylacetamide], for which it took 122 nM to reach a half-maximal effect (EC50).

In turn, `O=C1S/C(=C\c2ccc3c(cnn3Cc3ccc(Cl)cc3C(F)(F)F)c2)C(=O)N1CCNS(=O)(=O)C(F)(F)F` [Compound 55, N-{2-[(5Z)-5-({1-[4-Chloro-2-(trifluoromethyl)benzyl]-1H-indazol-5-yl}methylidene)-2,4-dioxo-1,3-thiazolidin-3-yl]ethyl}-1,1,1-trifluoromethanesulfonamide] registered an EC50 of 101 nM.

Turning to `Nc1nc(CN2C(=O)S/C(=C\c3ccc4c(cnn4Cc4ccc(Cl)cc4C(F)(F)F)c3)C2=O)c[nH]1` [Compound 231, (5Z)-3-[(2-Amino-1H-imidazol-4-yl)methyl]-5-({1-[4-chloro-2-(trifluoromethyl)benzyl]-1H-indazol-5-yl}methylidene)-1,3-thiazolidine-2,4-dione], a half-maximal response (EC50) required 46 nM.

For `NS(=O)(=O)NC(=O)CN1C(=O)S/C(=C\c2ccc3c(cnn3Cc3ccc(C(F)(F)F)cc3C(F)(F)F)c2)C1=O` [Compound 87, 2-[(5Z)-5-({1-[2,4-Bis(trifluoromethyl)benzyl]-1H-indazol-5-yl}methylidene)-2,4-dioxo-1,3-thiazolidin-3-yl]-N-sulfamoylacetamide], it took 650 nM to reach a half-maximal effect (EC50).

`O=C1S/C(=C\c2ccc3c(cnn3Cc3ccc(Cl)cc3C(F)(F)F)c2)C(=O)N1CCNS(=O)(=O)c1ccc(C(F)(F)F)cc1` [Compound 392, N-{2-[(5Z)-5-({1-[4-Chloro-2-(trifluoromethyl)benzyl]-1H-indazol-5-yl}methylidene)-2,4-dioxo-1,3-thiazolidin-3-yl]ethyl}-4-(trifluoromethyl) benzenesulfonamide] displayed an EC50 of 215 nM. This EC50 lies about 3-fold lower than the previous one.

For the molecule `O=C1S/C(=C\c2ccc3c(cnn3Cc3ccc(Cl)cc3C(F)(F)F)c2)C(=O)N1[C@@H]1CNCC[C@@H]1F` (relative stereo) [Compound 199, (5Z)-5-({1-[4-Chloro-2-(trifluoromethyl)benzyl]-1H-indazol-5-yl}methylidene)-3-(cis-4-fluoropiperidin-3-yl)-1,3-thiazolidine-2,4-dione], the concentration for a half-maximal effect (EC50) amounted to 15 nM.

`COC1CCN(S(=O)(=O)NC(=O)CN2C(=O)S/C(=C\c3ccc4c(cnn4Cc4ccc(Cl)cc4C(F)(F)F)c3)C2=O)CC1` [Compound 58, 2-[(5Z)-5-({1-[4-chloro-2-(trifluoromethyl)benzyl]-1H-indazol-5-yl}methylidene)-2,4-dioxo-1,3-thiazolidin-3-yl]-N-[(4-methoxypiperidin-1-yl)sulfonyl]acetamide] registered an EC50 of 44 nM.

In turn, `NC(=O)CN1CCN(N2C(=O)S/C(=C\c3ccc4c(cnn4Cc4ccc(Cl)cc4C(F)(F)F)c3)C2=O)CC1` [Compound 353, 2-{4-[(5Z)-5-({1-[4-Chloro-2-(trifluoromethyl)benzyl]-1H-indazol-5-yl}methylidene)-2,4-dioxo-1,3-thiazolidin-3-yl]piperazin-1-yl}acetamide] gave an EC50 of 11 nM.

Molecule `N[C@H]1CCC[C@H](CN2C(=O)S/C(=C\c3ccc4c(cnn4Cc4ccc(Cl)cc4C(F)(F)F)c3)C2=O)C1` [Compound 105, (5Z)-3-{[(1S,3S)-3-Aminocyclohexyl]methyl}-5-({1-[4-chloro-2-(trifluoromethyl)benzyl]-1H-indazol-5-yl}methylidene)-1,3-thiazolidine-2,4-dione] returned an EC50 of 68 nM. This EC50 lies about 6.2-fold higher than the previous one.

For `O=C(O)CN1C(=O)S/C(=C\c2ccc3c(ccn3Cc3ccc(Cl)cc3C(F)(F)F)c2)C1=O` [Compound 253, [(5Z)-5-({1-[4-Chloro-2-(trifluoromethyl)benzyl]-1H-indol-5-yl}methylidene)-2,4-dioxo-1,3-thiazolidin-3-yl]acetic acid], a half-maximal effect (EC50) was put at 120 nM.

Regarding `O=C1S/C(=C\c2ccc3c(c2)nnn3Cc2ccc(Cl)cc2C(F)(F)F)C(=O)N1Cc1nc[nH]n1` [Compound 264, (5Z)-5-({1-[4-Chloro-2-(trifluoromethyl)benzyl]-1H-benzotriazol-5-yl}methylidene)-3-(1H-1,2,4-triazol-3-ylmethyl)-1,3-thiazolidine-2,4-dione], the midpoint of the response, the EC50, lay at 16 nM. Against the preceding molecule, the EC50 is about 7.5-fold lower.

In turn, `O=C1S/C(=C\c2ccc3c(cnn3Cc3ccc(C(F)(F)F)cc3C(F)(F)F)c2)C(=O)N1CCN1CCCC1` [Compound 84, (5Z)-5-({1-[2,4-Bis(trifluoromethyl)benzyl]-1H-indazol-5-yl}methylidene)-3-(2-pyrrolidin-1-ylethyl)-1,3-thiazolidine-2,4-dione] returned a half-maximal effective concentration (EC50) of 580 nM.

Consider `O=C(CN1C(=O)S/C(=C\c2ccc3c(c2)c(Cl)nn3Cc2ccc(Cl)cc2C(F)(F)F)C1=O)NS(=O)(=O)N1CCCC1` [Compound 375, 2-[(5Z)-5-({3-Chloro-1-[4-chloro-2-(trifluoromethyl)benzyl]-1H-indazol-5-yl}methylidene)-2,4-dioxo-1,3-thiazolidin-3-yl]-N-(pyrrolidin-1-ylsulfonyl)acetamide], for which the half-maximal effective concentration (EC50) was found to be 70 nM.

Consider `CC[C@@H](CN1C(=O)S/C(=C\c2ccc3c(cnn3Cc3ccc(Cl)cc3C(F)(F)F)c2)C1=O)NS(C)(=O)=O` [Compound 156, N-[(1S)-1-{[(5Z)-5-({1-[4-Chloro-2-(trifluoromethyl)benzyl]-1H-indazol-5-yl}methylidene)-2,4-dioxo-1,3-thiazolidin-3-yl]methyl}propyl] methanesulfonamide], for which the response was half-maximal at 27 nM (EC50).

In turn, `O=C(NN1C(=O)S/C(=C\c2ccc3c(cnn3Cc3ccc(Cl)cc3C(F)(F)F)c2)C1=O)C1CC1` [Compound 373, N-[(5Z)-5-({1-[4-Chloro-2-(trifluoromethyl)benzyl]-1H-indazol-5-yl}methylidene)-2,4-dioxo-1,3-thiazolidin-3-yl]cyclopropanecarboxamide] displayed a concentration for a half-maximal effect (EC50) of 7 nM.

Source of the values: patent publication US8796256B2 (Janssen Pharmaceutica NV, priority 2010, dated 2014).
